# Results: patent US20160115540A1, “PRODRUGS AND DRUGS” (Biogen MA Inc., priority 2013, published 2016)
# Structures can show the parent of a compound that is named as a salt.
# System: kidney
# Assay: Transcriptional profiling on Affymetrix GeneChips, single dose, naïve mice: kidney
# Format: in vivo, C57BL/6 mice
# Conditions: for Number of differentially expressed genes identified: Kidney: Naïve, Single Dose, 100 mpk, vs Vehicle
# Protocol: Treated mice were sacrificed at 2, 7, or 12 hours. Tissues (liver, spleen, kidney, jejunum, cortex, hippocampus, striatum and whole blood) were collected and analyzed by transcriptional profiling on mouse Affymetrix GeneChips.
# Tissues (liver, spleen, kidney, jejunum, cortex, hippocampus, striatum and whole blood) were collected and analyzed by transcriptional profiling on mouse Affymetrix GeneChips.
# Animals were exposed to CO2 and whole blood collected via cardiac puncture. Two 100 μl aliquots of whole blood were collected in 1.5 mL microcentrifuge tubes and snap frozen in liquid nitrogen. Peripheral (liver, spleen, kidney and jejunum) and CNS brain (cerebellum, hippocampus, striatum and cortex) tissues were harvested and snap frozen in liquid nitrogen, with special care taken to collect tissues of similar size and from the same location. All samples were stored at −80° C. until RNA extraction was conducted.
# For RNA preparation, frozen tissues were placed in 2 mL RNAse-free 96-well blocks with 1.5 mL QIAzol Lysis Reagent (QIAgen) and a 3.2 mm stainless steel bead (BioSpec Products, Bartlesville, Okla.). Tissues were disrupted for four cycles of 45 seconds in a Mini-Beadbeater (Biospec Products). RNA was extracted in chloroform and the aqueous phase was mixed with an equal volume of 70% ethanol. Extracted RNA was applied to RNeasy 96 plates and purified by the spin method according to the manufacturer's protocol (RNeasy 96 Universal Tissue Protocol, QIAgen, Hilden Germany).
# Automated sample amplifications and biotin labelings were carried out using the NuGEN Ovation RNA Amplification system V2 (Cat #3100), Ovation WB reagent (Cat #1300) and Encore Biotin module (Cat #4200) (NuGEN Technologies, Inc, San Carlos, Calif.) according to manufacturer's recommendations using an Arrayplex automated liquid handler (Beckman Coulter, Indianapolis, Ind.). Two micrograms of biotin labeled sscDNA probe were hybridized to Affymetrix GeneChip Affymetrix HT_MG-430_PM plate arrays with modified conditions as described in Allaire et al. Washing and staining of the hybridized arrays were completed as described in the GeneChip Expression analysis technical manual for HT plate arrays using the Genechip® Array Station (Affymetrix, Santa Clara, Calif.) with modifications as described in Allaire et al. The processed GeneChip® plate arrays were scanned using GeneTitan scanner (Affymetrix, Santa Clara, Calif.).
# Affymetrix scans were subject to quality control (QC) measures. These tests included a visual inspection of the distribution of raw signal intensities and an assessment of RNA degradation, relative log expression (RLE), and normalized unsealed standard error (NUSE). All sample scans that passed these QC metrics were included in the analysis.
# All CEL files were subjected to GC-content-based Robust Multi-array Average (GCRMA) normalization (version 2.20.0) (Irizarry R A, et al. Nucleic Acids Res 2003; 31:e15; Li C, et al. Genome Biol 2001; 2:[…]0032). Expression levels were log (base 2) transformed.
# All calculations and analyses were carried out using R (version 2.11.1) and Bioconductor computational tools (Gentleman R. Springer Science+Business Media 2005).
structure (smiles),measurement,setting,value
"COC(=O)/C=C/C(=O)O [MMF, monomethyl fumarate]",FC Hfe 1422645_PM_at,"100MMF-vs-Veh, 12 h",1.56
same,FC Ikbkg 1421209_PM_s_at,"100MMF-vs-Veh, 12 h",1.57
same,FC Mep1b 1418215_PM_at,"100MMF-vs-Veh, 12 h",−1.55
same,FC Mthfd2 1419253_PM_at,"100MMF-vs-Veh, 12 h",1.65
same,FC Myo5a 1419754_PM_at,"100MMF-vs-Veh, 12 h",−3.09
same,FC Nek6 1423596_PM_at,"100MMF-vs-Veh, 12 h",1.69
same,FC Pnkd 1418746_PM_at,"100MMF-vs-Veh, 12 h",1.51
same,FC Slc6a4 1417150_PM_at,"100MMF-vs-Veh, 12 h",1.58
same,FC Slc38a3 1418706_PM_at,"100MMF-vs-Veh, 12 h",1.81
same,FC Smcp 1418358_PM_at,"100MMF-vs-Veh, 12 h",−2.49
same,FC Srxn1 (1419942_PM_at),"100MMF-vs-Veh, 12 h",1.96
same,FC Tfrc 1422966_PM_a_at,"100MMF-vs-Veh, 12 h",1.51
same,FC Tiam2 1423186_PM_at,"100MMF-vs-Veh, 12 h",1.84
same,FC Txnrd1 1421529_PM_a_at,"100MMF-vs-Veh, 12 h",1.55
same,"Number of genes, DMF Only / MMF Only",Kidney,94
same,Asns (1451095_PM_at) differential expression,"Kidney, 2 hr",2.46
same,Cbr3 (1427912_PM_at) differential expression,"Kidney, 2 hr",2.96
same,Gdf15 (1418949_PM_at) differential expression,"Kidney, 2 hr",5.50
same,Maf (probe set 1437473_PM_at) differential expression,"Kidney, 2 hr",−1.56
same,Mthfd2 (1419253_PM_at) differential expression,"Kidney, 2 hr",2.03
same,Number of differentially expressed genes identified: Kidney,2 h after last dosing,274
same,Number of differentially expressed genes identified: Kidney,7 h after last dosing,156
same,Number of differentially expressed genes identified: Kidney,12 h after last dosing,151
same,Asns (1451095_PM_at) differential expression,"kidney, 7 hr",2.13
same,Cbr1 (probe set 1460196_PM_at) differential expression,"kidney, 7 hr",1.58
same,Cbr3 (1427912_PM_at) differential expression,"kidney, 7 hr",9.54
same,Cul9 (probe set 1439866_PM_at) differential expression,"kidney, 7 hr",−1.52
same,Dbp (probe set 1418174_PM_at) differential expression,"kidney, 7 hr",−1.73
same,Fam107a (probe set 1435918_PM_at) differential expression,"kidney, 7 hr",−1.77
same,Frem2 (probe set 1457038_PM_at) differential expression,"kidney, 7 hr",−1.66
same,Gdf15 (1418949_PM_at) differential expression,"kidney, 7 hr",1.98
same,Gpr135 (probe set 1441944_PM_s_at) differential expression,"kidney, 7 hr",1.66
same,Ido2 (probe set 1425778_PM_at) differential expression,"kidney, 7 hr",−1.52
same,Il18 (probe set 1417932_PM_at) differential expression,"kidney, 7 hr",−1.52
same,Kcnh1 (probe set 1435994_PM_at) differential expression,"kidney, 7 hr",−1.61
same,Kif20b (probe set 1439695_PM_a_at) differential expression,"kidney, 7 hr",−2.61
same,Mthfd2 (1419253_PM_at) differential expression,"kidney, 7 hr",1.89
same,Nmral1 (probe set 1430530_PM_s_at) differential expression,"kidney, 7 hr",−1.52
same,Ppm1e (probe set 1434990_PM_at) differential expression,"kidney, 7 hr",−1.53
same,Rab38 (probe set 1417700_PM_at) differential expression,"kidney, 7 hr",−1.57
same,Slc48a1 (probe set 1450410_PM_a_at) differential expression,"kidney, 7 hr",1.58
same,Sphk2 (probe set 1426230_PM_at) differential expression,"kidney, 7 hr",−1.54
same,Tmem86a (probe set 1428758_PM_at) differential expression,"kidney, 7 hr",−1.56
same,Wdr90 (probe set 1426767_PM_at) differential expression,"kidney, 7 hr",−1.58
same,Acot1 (probe set 1449065_PM_at) differential expression,"kidney, 12 hr",1.59
same,Acot1 /// Acot2 (probe set 1422997_PM_s_at) differential expression,"kidney, 12 hr",1.51
same,Acsm2 (probe set 1427224_PM_at) differential expression,"kidney, 12 hr",−1.52
same,Aldh1a1 (probe set 1416468_PM_at) differential expression,"kidney, 12 hr",2.21
same,Arhgap26 (probe set 1440688_PM_at) differential expression,"kidney, 12 hr",−1.57
same,Asns (1451095_PM_at) differential expression,"kidney, 12 hr",2.49
same,Atp11a (probe set 1421167_PM_at) differential expression,"kidney, 12 hr",−1.62
same,B4galt5 (probe set 1433617_PM_s_at) differential expression,"kidney, 12 hr",−1.51
same,C8a (probe set 1428012_PM_at) differential expression,"kidney, 12 hr",−1.51
same,Cbr1 (probe set 1460196_PM_at) differential expression,"kidney, 12 hr",2.10
same,Cbr3 (1427912_PM_at) differential expression,"kidney, 12 hr",7.02
same,Cldn1 (probe set 1437932_PM_a_at) differential expression,"kidney, 12 hr",1.57
same,Dio3os (probe set 1435121_PM_at) differential expression,"kidney, 12 hr",1.60
same,Dpys (probe set 1436291_PM_a_at) differential expression,"kidney, 12 hr",1.51
same,Ep400 (probe set 1449610_PM_at) differential expression,"kidney, 12 hr",−1.67
same,Fga (probe set 1424279_PM_at) differential expression,"kidney, 12 hr",1.79
same,Gbe1 (probe set 1420654_PM_a_at) differential expression,"kidney, 12 hr",1.51
same,Gdf15 (1418949_PM_at) differential expression,"kidney, 12 hr",2.01
same,Gpr19 (probe set 1421756_PM_a_at) differential expression,"kidney, 12 hr",1.50
same,Gpr135 (probe set 1441944_PM_s_at) differential expression,"kidney, 12 hr",1.59
same,Gpt (probe set 1426502_PM_s_at) differential expression,"kidney, 12 hr",1.51
same,Gsta2 (probe set 1421040_PM_a_at) differential expression,"kidney, 12 hr",1.61
same,Gstp1 (probe set 1449575_PM_a_at) differential expression,"kidney, 12 hr",1.54
same,Kif20b (probe set 1439695_PM_a_at) differential expression,"kidney, 12 hr",−2.85
same,Klk1b21 (probe set 1451607_PM_at) differential expression,"kidney, 12 hr",1.57
same,Maf (probe set 1437473_PM_at) differential expression,"kidney, 12 hr",1.53
same,Mthfd2 (1419253_PM_at) differential expression,"kidney, 12 hr",1.65
same,Nek6 (probe set 1423596_PM_at) differential expression,"kidney, 12 hr",1.69
same,Nfia (probe set 1446742_PM_at) differential expression,"kidney, 12 hr",−1.74
same,Orc4 (probe set 1431172_PM_at) differential expression,"kidney, 12 hr",1.50
same,Pigl (probe set 1440965_PM_at) differential expression,"kidney, 12 hr",1.52
same,Pnkd (probe set 1418746_PM_at) differential expression,"kidney, 12 hr",1.51
same,Rcor3 (probe set 1428343_PM_at) differential expression,"kidney, 12 hr",−1.51
same,Reep6 (probe set 1430128_PM_a_at) differential expression,"kidney, 12 hr",1.51
same,Slc5a3 (probe set 1440227_PM_at) differential expression,"kidney, 12 hr",−1.50
same,Slc6a4 (probe set 1417150_PM_at) differential expression,"kidney, 12 hr",1.58
same,Slc8a1 (probe set 1437675_PM_at) differential expression,"kidney, 12 hr",−1.86
same,Slc38a3 (probe set 1418706_PM_at) differential expression,"kidney, 12 hr",1.81
same,Slc39a8 (probe set 1448482_PM_at) differential expression,"kidney, 12 hr",−1.55
same,Slc48a1 (probe set 1450410_PM_a_at) differential expression,"kidney, 12 hr",1.53
same,Slco2a1 (probe set 1444242_PM_at) differential expression,"kidney, 12 hr",1.63
same,Smarca2 (probe set 1452333_PM_at) differential expression,"kidney, 12 hr",−1.60
same,Tfrc (probe set 1422966_PM_a_at) differential expression,"kidney, 12 hr",1.51
same,Tmie (probe set 1443964_PM_at) differential expression,"kidney, 12 hr",1.65
same,Trim16 (probe set 1460629_PM_at) differential expression,"kidney, 12 hr",1.51
same,FC 1200003I10Rik /// 1200015M12Rik /// A130040M12Rik /// E430024C06Rik 1427932_PM_s_at,"kidney, 100MMF-vs-Veh, 12 h",1.54
same,FC 1200016E24Rik (1452418_PM_at),"kidney, 100MMF-vs-Veh, 12 h",1.50
same,FC 1300002K09Rik 1453234_PM_at,"kidney, 100MMF-vs-Veh, 12 h",1.88
same,FC 1441333_PM_at (no gene symbol),"kidney, 100MMF-vs-Veh, 12 h",−2.46
same,FC 1441971_PM_at (no gene symbol),"kidney, 100MMF-vs-Veh, 12 h",1.51
same,FC 1444920_PM_at (no gene symbol),"kidney, 100MMF-vs-Veh, 12 h",−1.56
same,FC 1447396_PM_at (no gene symbol),"kidney, 100MMF-vs-Veh, 12 h",−1.52
same,FC 1455722_PM_at (no gene symbol),"kidney, 100MMF-vs-Veh, 12 h",−1.53
same,FC 1458599_PM_at (no gene symbol),"kidney, 100MMF-vs-Veh, 12 h",1.57
same,FC 1459091_PM_at (no gene symbol),"kidney, 100MMF-vs-Veh, 12 h",2.38
same,FC 2010003K11Rik (1424626_PM_at),"kidney, 100MMF-vs-Veh, 12 h",1.65
same,FC 2310043L19Rik (1440008_PM_at),"kidney, 100MMF-vs-Veh, 12 h",1.86
same,FC 3110009E18Rik (1428023_PM_at),"kidney, 100MMF-vs-Veh, 12 h",1.58
same,FC 4933427G17Rik 1431905_PM_s_at,"kidney, 100MMF-vs-Veh, 12 h",1.59
